Results as given in the NIST ThermoML archive (doi:10.1016/j.tca.2012.10.018).
Values joined by “and” are separate entries in the source; they are usually repeats but may differ in a detail not shown here. Identical values can stand only once.

Key:
[1] = mn = molality of the nth substance listed, in mol/kg; details: 101 kPa, Liquid; for speed of sound: Sing-around technique in a fixed-path interferometer; for mass density: Vibrating tube method
[2] = 101 kPa, Liquid; for speed of sound: Sing-around technique in a fixed-path interferometer; for mass density: Vibrating tube method

CC1(C)SC2C(NC(=O)C(N)c3ccccc3)C(=O)N2C1C(=O)O (stereo not drawn) + O
[1]
Details	mass density, m1 = 0.0005 [kg/m3]	mass density, m1 = 0.001 [kg/m3]	mass density, m1 = 0.002 [kg/m3]	mass density, m1 = 0.004 [kg/m3]	speed of sound, m1 = 0.0005 [m/s]	speed of sound, m1 = 0.001 [m/s]	speed of sound, m1 = 0.002 [m/s]	speed of sound, m1 = 0.004
305.15 K	995.119	995.211	995.313	995.507	1513.6	1513.8	1514.1	1514.2 m/s
310.15 K	993.425	993.515	993.607	993.805	1523.4	1523.6	1524.1	1524 m/s
315.15 K	991.53	991.614	991.711	991.91	1531.9	1532	1532.4	1532.4 m/s and 1531.9 m/s

NCC(=O)O [2-aminoacetic acid] + O
[1]
Details	mass density, m1 = 0.03272 [kg/m3]	mass density, m1 = 0.04933 [kg/m3]	mass density, m1 = 0.0581 [kg/m3]	mass density, m1 = 0.09278 [kg/m3]	mass density, m1 = 0.1392 [kg/m3]	speed of sound, m1 = 0.03272 [m/s]	speed of sound, m1 = 0.04933 [m/s]	speed of sound, m1 = 0.0581 [m/s]	speed of sound, m1 = 0.09278 [m/s]	speed of sound, m1 = 0.1392 [m/s]
305.15 K	996.158	996.664	996.929	–	999.339	1515	1515.7	1516.1	1517.7	1519.6
310.15 K	993.281	–	994.038	995.054	–	1524.9	1525.5	1525.9	1527.3	1529
315.15 K	992.376	–	993.122	994.122	995.416	1533.4	1534	1534.3	1535.6	1537.2

CC(C)C[C@H](NC(=O)CN)C(=O)O [glycyl-L-leucine] + O
[1]
Details	mass density, m1 = 0.03308 [kg/m3]	mass density, m1 = 0.05972 [kg/m3]	mass density, m1 = 0.09457 [kg/m3]	mass density, m1 = 0.1115 [kg/m3]	speed of sound, m1 = 0.03308 [m/s]	speed of sound, m1 = 0.05972 [m/s]	speed of sound, m1 = 0.09457 [m/s]	speed of sound, m1 = 0.1115 [m/s]
305.15 K	996.762	998.038	999.652	1000.42	1518.1	1521.8	1526.8	1529.1
310.15 K	993.879	995.132	996.722	997.479	1528	1531.6	1536.3	1538.6
315.15 K	992.968	994.198	995.757	996.494	1536.5	1539.9	1544.4	1546.6

NCC(=O)NCC(=O)O [glycylglycine] + O
[1]
Details	mass density, m1 = 0.01976 [kg/m3]	mass density, m1 = 0.03098 [kg/m3]	mass density, m1 = 0.06804 [kg/m3]	mass density, m1 = 0.08258 [kg/m3]	mass density, m1 = 0.1196 [kg/m3]	speed of sound, m1 = 0.01976 [m/s]	speed of sound, m1 = 0.03098 [m/s]	speed of sound, m1 = 0.06804 [m/s]	speed of sound, m1 = 0.08258 [m/s]	speed of sound, m1 = 0.1196 [m/s]
305.15 K	996.227	996.841	998.809	999.555	1001.4	1515	1515.8	1518.5	1519.5	1522.1
310.15 K	993.362	993.969	995.921	996.662	998.494	1524.9	1525.7	1528.1	1529.1	1531.5
315.15 K	992.463	993.064	994.996	995.732	997.528	1533.4	1534.1	1536.3	1537.2	1539.4

O [water]
[2]
Details	mass density [kg/m3]	speed of sound [m/s]
305.15 K	995.132	1513.5
310.15 K	992.274	1523.5
315.15 K	991.385	1532.2

O [water] + CC(C)C[C@H](NC(=O)CN)C(=O)O
[1], m2 = 0
Details	mass density [kg/m3]	speed of sound [m/s]
305.15 K	995.132	1513.5
310.15 K	992.274	1523.5
315.15 K	991.385	1532.2

O [water] + NCC(=O)NCC(=O)O
[1], m2 = 0
Details	mass density [kg/m3]	speed of sound [m/s]
305.15 K	995.132	1513.5
310.15 K	992.274	1523.5
315.15 K	991.385	1532.2

O [water] + NCC(=O)O
[1], m2 = 0
Details	mass density [kg/m3]	speed of sound [m/s]
305.15 K	995.132	1513.5
310.15 K	992.274	1523.5
315.15 K	991.385	1532.2
